In brackets after ≈: the same amount, converted by molar mass.
tested on: Vaccinia virus; assay: Concentration required to reduce vaccinia virus induced cytopathogenicity by 50% in primary rabbit kidney cell cultures.; format: functional; conditions: Orthopoxvirus vaccinia

| SMILES | MIC [mg/L] |
| --- | --- |
| Nc1ncnc2c1cc(Br)n2C1O[C@H](CO)[C@@H](O)[C@H]1O (some centres undefined) | 300 (≈ 869 µM) |
| Nc1ncnc2c1c(Br)c(Br)n2C1O[C@H](CO)[C@@H](O)[C@H]1O (some centres undefined) | 20 (≈ 47.2 µM) |
| Nc1ncnc2c1c(CCCO)cn2C1O[C@H](CO)[C@@H](O)[C@H]1O (some centres undefined) | 2 (≈ 6.17 µM) |
| Nc1ncnc2c1c(/C=C/Br)cn2C1O[C@H](CO)[C@@H](O)[C@H]1O (some centres undefined) | > 1 |
| Nc1ncnc2c1c(Cl)c(Cl)n2C1O[C@H](CO)[C@@H](O)[C@H]1O (some centres undefined) | > 40 |
| N#C/C=C/c1cn(C2O[C@H](CO)[C@@H](O)[C@H]2O)c2ncnc(N)c12 (some centres undefined) | 0.7 (≈ 2.21 µM) |
| CC(O)c1cn(C2O[C@H](CO)[C@@H](O)[C@H]2O)c2ncnc(N)c12 (some centres undefined) | 0.7 (≈ 2.26 µM) |
| COC(C)c1cn(C2O[C@H](CO)[C@@H](O)[C@H]2O)c2ncnc(N)c12 (some centres undefined) | 0.7 (≈ 2.16 µM) |
| C/C=C/Cc1cn(C2O[C@H](CO)[C@@H](O)[C@H]2O)c2ncnc(N)c12 (some centres undefined) | 0.7 (≈ 2.19 µM) |
| CCCCc1cn(C2O[C@H](CO)[C@@H](O)[C@H]2O)c2ncnc(N)c12 (some centres undefined) | > 40 |
| Nc1ncnc2c1c(Br)cn2[C@@H]1O[C@H](CO)[C@@H](O)[C@H]1O | 0.2 (≈ 0.579 µM) |
| Nc1nccc2c1ncn2[C@@H]1C[C@H](CO)[C@H](O)C1O (some centres undefined) | 0.1 (≈ 0.378 µM) |
| Nc1ncnc2c1c(Cl)cn2[C@@H]1O[C@H](CO)[C@@H](O)[C@H]1O | > 1 |
| Nc1ncnc2c1c(I)cn2[C@@H]1O[C@H](CO)[C@@H](O)[C@H]1O [IODOTUBERCIDIN] | 0.07 (≈ 0.179 µM) |
| NC(=O)c1ncn([C@@H]2O[C@H](CO)[C@@H](O)[C@H]2O)n1 [RIBAVIRIN] | 10 (≈ 40.9 µM) |
| NC(=O)c1cn([C@@H]2O[C@H](CO)[C@@H](O)[C@H]2O)c2ncnc(N)c12 [SANGIVAMYCIN] | 0.02 (≈ 0.0647 µM) |
| N#Cc1cn([C@@H]2O[C@H](CO)[C@@H](O)[C@H]2O)c2ncnc(N)c12 [TOYOCAMYCIN] | > 0.01 |
| Nc1ncnc2c1ccn2[C@@H]1O[C@H](CO)[C@@H](O)[C@H]1O [TUBERCIDIN] | 0.02 (≈ 0.0751 µM) |

tested on: Vaccinia virus; assay: Compound was tested for the concentration required to reduce vaccinia virus induced cytopathogenicity by 50% in primary rabbit kidney cell cultures; format: functional; conditions: Orthopoxvirus vaccinia

| SMILES | MIC [mg/L] |
| --- | --- |
| Nc1ncnc2c1ncn2C[C@@H](O)CO | 70 (≈ 335 µM) |
